Test results reported in patent US8663660B2, “Polymerized micelles” (Les Laboratories Servier, priority 2008, dated 2014).
Converted amounts (≈) assume the structure as drawn.

Columns and labels:
[1] = physchem; settings: for Molar level of inclusion: polymerised micelles at 10 mg/ml, 50° C. 12 hours, molar ratio medicament/(medicament + amphiphilic II-4) × 100; for Level of inclusion by weight: polymerised micelles of amphiphilic II-4 at 10 mg/ml, stirring at 50° C. for 12 hours, weight ratio medicament/(medicament + transporter) × 100; for Number of molecules per micelle: polymerised micelles, molar ratio medicament/amphiphilic II-4 × 100 amphiphilics per micelle
Protocol: At the end of the inclusion sequence, the solution is filtered in order to remove the excess of non-included active ingredient.
The level of inclusion of S39625 is determined by the reverse-phase HPLC method. This technique is based on the difference in the interaction of molecules between the mobile phase and the stationary phase. This difference affects the retention times for those molecules. For given HPLC conditions, the same molecule always has the same retention time. The reverse-phase HPLC conditions for determination of the level of inclusion of S39625 are an RP-18^c grafted silica column for the stationary phase and a gradient of water and of acetonitrile from 5% to 100% for the mobile phase. Detection of the S39625 at the column exit is carried out by a UV detector at a wavelength of 385 nm. A standard curve for S39625 in acetonitrile was produced by reverse HPLC.

[2] = Solubility of the active ingredient molecule in water; format: physicochemical; settings: free molecule, without micelles
[3] = Critical micellar concentration; format: physicochemical
Protocol: “Self-assembly” of amphiphilic molecules is understood to be the spontaneous organisation, into spherical micelles, of amphiphilic molecules in aqueous media at a concentration greater than the critical micellar concentration or CMC.
The critical micellar concentration of the amphiphilic molecule II-4 as described hereinbefore was determined in experiments to be 0.082 mg/ml.

Which results are given for CCC1(O)C(=O)Cc2c1cc1n(c2=O)Cc2c-1nc1cc3c(cc1c2C1CCC1)OCO3 (stereo not shown) [S 39625]?
Solubility in water [1]: 9000 µg/mL (≈ 20.9 mM); Molar level of inclusion [1]: 56%; Level of inclusion by weight [1]: 48%; Number of molecules per micelle [1]: 125; Solubility of the molecule in water [2]: 0.09 µg/mL

For CCCC#CC#CCCC(=O)NCCCCC(C(=O)O)N(CC(=O)O)CC(=O)O (stereo not shown) [II-4], which Critical micellar concentration [3] is on record?
The Critical micellar concentration was 0.082 mg/mL.

Which “Molar level of inclusion” value [1] does the source give for c1cc2ccc3cccc4ccc(c1)c2c34 [Pyrene, pyrene, reference compound] here?
The value was 63%.

What about the “Level of inclusion by weight” value [1] of the same molecule?
The value was 34%.

What about the “Number of molecules per micelle” value [1] of the same molecule?
The value was 167.

Which results are given for CC(=O)O[C@H]1C(=O)[C@@]2(C)[C@H]([C@H](OC(=O)c3ccccc3)[C@]3(O)C[C@H](OC(=O)[C@H](O)[C@@H](NC(=O)c4ccccc4)c4ccccc4)C(C)=C1C3(C)C)[C@]1(OC(C)=O)CO[C@@H]1C[C@@H]2O [Paclitaxel, paclitaxel, reference compound]?
solubility at 12 h ([1]; 50 °C, aqueous with cosolvent or surfactant or cyclodextrin, thermodynamic from solid): 4550 µg/mL (≈ 5.33 mM); Molar level of inclusion [1]: 25%; Level of inclusion by weight [1]: 31%; Level of inclusion by weight ([1]; listed as paclitaxel): 33%; Number of molecules per micelle [1]: 33

For CN(C)CC[C@H](CSc1ccccc1)Nc1ccc(S(=O)(=O)NC(=O)c2ccc3c(c2)CC[C@@H]2CN(Cc4ccccc4-c4ccc(Cl)cc4)CCN32)cc1[N+](=O)[O-] [S 44563], which Solubility in water [1] is on record?
The Solubility in water was 8300 µg/mL (≈ 9.89 mM).

And the “Molar level of inclusion” value [1]?
The value was 36%.

And the “Level of inclusion by weight” value [1]?
The value was 45%.

And the “Number of molecules per micelle” value [1]?
The value was 56.

And the “Solubility of the molecule in water” value [2]?
Its value is 2.00 µg/mL.
